Experimental data published in ChEMBL document CHEMBL5532713, “Ergone Derivatives from the Deep-Sea-Derived Fungus Aspergillus terreus YPGA10 and 25,28-Dihydroxyergone-Induced Apoptosis in Human Colon Cancer SW620 Cells” (J Nat Prod, 2024).
Blank lines part the entries; values can stand above or below the compound they belong to. Activity calls are given as the source filed them. The calls are words filed in the database; no cut-off is given here.

Columns and labels:
U-937 [1] = experiment: Effect on cell survival in RSL3-induced human U-937 cells at 50 uM; format: functional, cell-based
SW-620 [2] = experiment: Antiproliferative activity against human SW-620 cells assessed as reduction in cell viability incubated for 48 hrs by CCK-8 assay; format: functional, cell-based; settings: for IC50: SW-620, 48 h
U-937 [3] = experiment: Inhibition of RSL3-induced ferroptosis in human U-937 cells; format: functional, cell-based
K562 = experiment: Antiproliferative activity against human K562 cells assessed as reduction in cell viability incubated for 48 hrs by CCK-8 assay; format: functional, cell-based; settings: K562, 48 h
A549 = experiment: Antiproliferative activity against human A549 cells assessed as reduction in cell viability by CCK-8 assay; format: functional, cell-based
CCRF-CEM = experiment: Antiproliferative activity against human CCRF-CEM cells assessed as reduction in cell viability incubated for 48 hrs by CCK-8 assay; format: functional, cell-based
MCF7 = experiment: Antiproliferative activity against human MCF7 cells assessed as reduction in cell viability by CCK-8 assay; format: functional, cell-based; settings: dose 40.0 µM, time 48.0 hrs
SMMC-7721 = experiment: Antiproliferative activity against human SMMC-7721 cells assessed as reduction in cell viability by CCK-8 assay; format: functional, cell-based
U-937 [4] = experiment: Antiproliferative activity against human U-937 cells assessed as reduction in cell viability incubated for 48 hrs by CCK-8 assay; format: toxicity, cell-based; settings: u-937, 48 h, 50 µM
PANC-1 = experiment: Antiproliferative activity against human PANC-1 cells assessed as reduction in cell viability by CCK-8 assay; format: functional, cell-based
SW-620 [5] = experiment: Antiproliferative activity against human SW-620 cells assessed as reduction in cell viability at 40 uM incubated for 48 hrs by CCK-8 assay; format: functional, cell-based
THP-1 = experiment: Antiproliferative activity against human THP-1 cells assessed as reduction in cell viability incubated for 48 hrs by CCK-8 assay; format: functional, cell-based; settings: THP-1, 48 h
MDA-MB-231 = experiment: Antiproliferative activity against human MDA-MB-231 cells assessed as reduction in cell viability by CCK-8 assay; format: functional, cell-based; settings: dose 40.0 µM, time 48.0 hrs
[6] = Cytotoxicity against human BEAS-2B cells assessed as inhibition of cell growth at 40 uM incubated for 48 hrs by CCK-8 assay relative to control; format: toxicity, cell-based
Jurkat = experiment: Antiproliferative activity against human Jurkat cells assessed as reduction in cell viability incubated for 48 hrs by CCK-8 assay; format: functional, cell-based
SW-620 [7] = experiment: Antiproliferative activity against human SW-620 cells assessed as change in F-actin cytoskeleton morphology at 1.25 uM incubated for 48 hrs by DAPI staining based laser confocal microscope analysis; format: functional, cell-based
SW-620 [8] = experiment: Induction of apoptosis in human SW-620 cells assessed as necrotic cells at 1.25 uM incubated for 48 hrs by Annexin V FITC/PI staining based flow cytometry analysis (reference value: 0.057 %); format: functional
SW-620 [9] = experiment: Induction of apoptosis in human SW-620 cells assessed as early apoptotic cells at 2.5 uM incubated for 48 hrs by Annexin V FITC/PI staining based flow cytometry analysis (reference value: 5.00 %); format: functional
SW-620 [10] = experiment: Induction of apoptosis in human SW-620 cells assessed as early apoptotic cells at 1.25 uM incubated for 48 hrs by Annexin V FITC/PI staining based flow cytometry analysis (reference value: 5.00 %); format: functional
SW-620 [11] = experiment: Induction of apoptosis in human SW-620 cells assessed as increase in Bax/Bcl-2 ratio incubated for 48 hrs by Western blotting analysis; format: functional, cell-based; settings: dose 1.25-5 µM
SW-620 [12] = experiment: Induction of apoptosis in human SW-620 cells assessed as late apoptotic cells at 5 uM incubated for 48 hrs by Annexin V FITC/PI staining based flow cytometry analysis (reference value: 4.90 %); format: functional
SW-620 [13] = experiment: Induction of apoptosis in human SW-620 cells assessed as early apoptotic cells at 5 uM incubated for 48 hrs by Annexin V FITC/PI staining based flow cytometry analysis (reference value: 5.00 %); format: functional
SW-620 [14] = experiment: Induction of apoptosis in human SW-620 cells assessed as necrotic cells at 2.5 uM incubated for 48 hrs by Annexin V FITC/PI staining based flow cytometry analysis (reference value: 0.057 %); format: functional
SW-620 [15] = experiment: Induction of apoptosis in human SW-620 cells assessed as necrotic cells at 5 uM incubated for 48 hrs by Annexin V FITC/PI staining based flow cytometry analysis (reference value: 0.057 %); format: functional
SW-620 [16] = experiment: Induction of apoptosis in human SW-620 cells assessed as late apoptotic cells at 2.5 uM incubated for 48 hrs by Annexin V FITC/PI staining based flow cytometry analysis (reference value: 4.90 %); format: functional
SW-620 [17] = experiment: Induction of apoptosis in human SW-620 cells assessed as late apoptotic cells at 1.25 uM incubated for 48 hrs by Annexin V FITC/PI staining based flow cytometry analysis (reference value: 4.90 %); format: functional
SW-620 [18] = experiment: Induction of apoptosis in human SW-620 cells assessed as viable cells at 2.5 uM incubated for 48 hrs by Annexin V FITC/PI staining based flow cytometry analysis (reference value: 90.0 %); format: functional; settings: read-out: Activity
SW-620 [19] = experiment: Induction of apoptosis in human SW-620 cells assessed as increase in Bax expression at 1.25 to 5 uM incubated for 48 hrs by Western blotting analysis; format: functional, cell-based; settings: dose 1.25-5 µM
SW-620 [20] = experiment: Induction of apoptosis in human SW-620 cells assessed as viable cells at 5 uM incubated for 48 hrs by Annexin V FITC/PI staining based flow cytometry analysis (reference value: 90.0 %); format: functional; settings: read-out: Activity
SW-620 [21] = experiment: Antiproliferative activity against human SW-620 cells assessed as change in F-actin cytoskeleton density at 2.5 to 5 uM incubated for 48 hrs by DAPI staining based laser confocal microscope analysis; format: functional, cell-based; settings: dose 2.5-5 µM
SW-620 [22] = experiment: Induction of apoptosis in human SW-620 cells assessed as decrease in Bcl-2 expression at 1.25 to 5 uM incubated for 48 hrs by Western blotting analysis; format: functional, cell-based; settings: dose 1.25-5 µM
SW-620 [23] = experiment: Induction of apoptosis in human SW-620 cells assessed as viable cells at 1.25 uM incubated for 48 hrs by Annexin V FITC/PI staining based flow cytometry analysis (reference value: 90.0 %); format: functional; settings: read-out: Activity
SW-620 [24] = experiment: Antiproliferative activity against human SW-620 cells assessed as inhibition of cell proliferation by measuring decrease in fluorescence intensity incubated for 48 hrs by EdU incorporation based fluorescence microscopic analysis; format: functional; settings: dose 1.25-5 µM

Structure (SMILES): CO[C@@H]1C[C@H]([C@H](C)/C=C/[C@H](CO)C(C)(C)O)[C@]2(C)C1=C1C=CC3=CC(=O)CC[C@]3(C)[C@H]1C[C@H]2O
Activity (U-937 [1]): Active

IC50 (SW-620 [2]): 2.3 µM
Structure (SMILES): COc1cccc2c1C(=O)c1c(O)c3c(c(O)c1C2=O)C[C@@](O)(C(=O)CO)C[C@@H]3O[C@H]1C[C@H](N)[C@H](O)[C@H](C)O1 [DOXORUBICIN]

EC50 (U-937 [3]): 30 µM
Structure (SMILES): CC(=O)O[C@H]1C[C@H]([C@H](C)/C=C/[C@H](C)C(C)(O)CO)[C@]2(C)C1=C1C=CC3=CC(=O)CC[C@]3(C)[C@H]1C[C@H]2O (stereo not given in full)

Structure (SMILES): CO[C@H]1C[C@H]([C@H](C)/C=C/[C@H](CO)C(C)(C)O)[C@]2(C)C1=C1C=CC3=CC(=O)CC[C@]3(C)[C@H]1C[C@H]2O
Activity (U-937 [1]): Active

Structure (SMILES): CC(=O)O[C@H]1C[C@H]([C@H](C)/C=C/[C@H](CO)C(C)(C)O)[C@]2(C)C1=C1C=CC3=CC(=O)CC[C@]3(C)[C@H]1C[C@H]2O
Activity (U-937 [1]): Active

Structure (SMILES): C[C@H](/C=C/[C@H](CO)C(C)(C)O)[C@H]1C[C@H](O)C2=C3C=CC4=CC(=O)CC[C@]4(C)[C@H]3C[C@@H](O)[C@@]21C
Activity (U-937 [1]): Active

Structure (SMILES): C[C@H](/C=C/[C@H](C)C(C)(C)O)[C@H]1C[C@H](O)C2=C3C=CC4=CC(=O)CC[C@]4(C)[C@H]3C[C@@H](O)[C@@]21C
Activity (U-937 [1]): Active

IC50 (K562): 5.7 µM
IC50 (CCRF-CEM): 5.7 µM
IC50 (THP-1): 5.7 µM
IC50 (SW-620 [2]): 8.4 µM
IC50 (Jurkat): 5.7 µM
Structure (SMILES): C[C@H](/C=C/[C@H](CO)C(C)(C)O)[C@H]1CCC2=C3C=CC4=CC(=O)CC[C@]4(C)[C@H]3C[C@@H](O)[C@@]21C
Activity (A549): inactive
Activity (MCF7): inactive
Activity (SMMC-7721): inactive
Activity (U-937 [4]): Toxic
Activity (PANC-1): inactive
Activity (SW-620 [5]): Active
Activity (MDA-MB-231): inactive
Activity (U-937 [1]): Active
Activity (SW-620 [2]): Dose-Dependent Effect
inhibition at 48 h, 40 µM [6]: < 7%

IC50 (SW-620 [2]): 3.1 µM
Structure (SMILES): C[C@H](/C=C/[C@H](CO)C(C)(C)O)[C@H]1CCC2=C3C=CC4=CC(=O)CC[C@]4(C)[C@H]3CC[C@@]21C
Activity (SW-620 [7]): Active
Activity (SW-620 [8]): 0.63%
Activity (A549): inactive
Activity (SW-620 [9]): 12.4%
Activity (MCF7): inactive
Activity (SW-620 [10]): 6.2%
Activity (SMMC-7721): inactive
Activity (SW-620 [11]): Dose-Dependent Effect
Activity (PANC-1): inactive
Activity (SW-620 [5]): Active
Activity (SW-620 [12]): 80.8%
Activity (SW-620 [13]): 14.6%
Activity (SW-620 [14]): 2.55%
Activity (MDA-MB-231): inactive
Activity (SW-620 [15]): 1.23%
Activity (SW-620 [16]): 61.4%
Activity (SW-620 [2]): Dose-Dependent Effect
inhibition at 48 h, 40 µM [6]: < 7%
Activity (SW-620 [17]): 14.1%
viability at 2.5 µM (SW-620 [18]): 23.6%
Activity (SW-620 [19]): Active
viability at 5 µM (SW-620 [20]): 3.35%
Activity (SW-620 [21]): Active
Activity (SW-620 [22]): Active
viability at 1.25 µM (SW-620 [23]): 79.1%
Activity (SW-620 [24]): Dose-Dependent Effect

Structure (SMILES): C[C@H](/C=C/[C@H](CO)C(C)(C)O)[C@H]1CC(=O)C2=C3C=CC4=CC(=O)CC[C@]4(C)[C@H]3C[C@@H](O)[C@@]21C
Activity (U-937 [1]): Active
